Source: the Deep4Chem optical property database
Several values for one entry are separate records, joined by “and”; a condition that tells them apart may be missing. Equal entries are not always repeated.

Experiment: solvent given as SMILES

`COc1ccc(C(=O)COc2c(C)c(=O)n3c(=O)c(C)c(COC(=O)c4ccccc4Cl)n23)cc1` showed an absorption maximum (in CCO) of 382 nm.

`FC(F)(F)c1ccc(/C=C/c2ccc(-c3nnc(-c4ccc(-c5cc6ccccc6s5)cc4)o3)cc2)cc1` showed an absorption maximum (in CC#N) of 333 nm, an absorption maximum (in CC(C)=O) of 342 nm and an absorption maximum (in CCCCCCCC) of 337 nm. For the same compound, the absorption maximum (in CCCCCCCCCCO) was 340 nm, the absorption maximum (in CCCCCCCCO) was 342 nm and the absorption maximum (in CCCCCO) was 341 nm. The absorption maximum (in CCCO) was 340 nm, the absorption maximum (in CN(C)C=O) was 345 nm and the absorption maximum (in CO) was 337 nm. For the same compound, the absorption maximum (in CS(C)=O) was 342 nm.

With `O=C1c2ccc(N(c3ccccc3)c3ccccc3)cc2C(=O)c2ccc(N(c3ccccc3)c3ccccc3)cc21` the absorption maximum (in Cc1ccccc1) was 449 nm.

`C[Si]1(C)c2cc(-c3ccc(-c4cccs4)s3)ccc2C=Cc2ccc(-c3ccc(-c4cccs4)s3)cc21` gave an absorption maximum (in ClCCl) of 458 nm.

`C/C=C/C=C/C1=NC(=C\c2ccc([O-])cc2)/C(=O)N1C` gave an absorption maximum (in O) of 482 nm.

`CSc1ccc(/C=C/c2cnc3ccccc3n2)cc1` showed an absorption maximum (in C1CCOC1) of 376 nm, an absorption maximum (in CC#N) of 377 nm and an absorption maximum (in CCCCCCC) of 373 nm. It also gave an absorption maximum (in CS(C)=O) of 383 nm and an absorption maximum (in ClCCl) of 381 nm.

`Cc1cc(=O)c2c(ccc3ccc(O)cc32)o1` gave an absorption maximum (in CC#N) of 336 nm.

Work on `CN(C)c1ccc(/C=C/c2nc3c(ccc4ccccc43)s2)cc1` yielded an absorption maximum (in C1CCCCC1) of 402 nm and an absorption maximum (in CC#N) of 409 nm.

With `CCOC(=O)c1nn(-c2ccc(OC)cc2)nc1N1CCCC1` the absorption maximum (in CC#N) was 336 nm.

`FC(F)(F)c1ccc2oc3nc4oc5ccc(N(c6ccccc6)c6ccccc6)cc5c4cc3c2c1` showed an absorption maximum (in ClC(Cl)Cl) of 345 nm.

In the case of `COc1ccc2c3ccc(OC)cc3n(-c3ccc(-c4nnc(-c5c(C(C)C)cc(C(C)C)cc5C(C)C)o4)cc3)c2c1`, the absorption maximum (in Cc1ccccc1) was 319 nm.

`C[n+]1ccn(CCCCc2ccc3c(c2)c2ccccc2n3-c2cc(C#N)c(C#N)cc2F)c1` showed an absorption maximum (in CC#N) of 350.79 nm.

For `COCCC1=Cc2nc1ccc1[nH]c(cc1CCOC)c1nc(c(NC(=O)CCCC(=O)O)cc3[nH]c2cc3CCOC)C(CCOC)=C1`, the absorption maximum (in Cc1ccccc1) was 645 nm.

With `CC(=O)[O-]` the absorption maximum (in O) was 210 nm.

In the case of `CC(C)(C)c1ccc2c(c1)sc1[n+]2[B-](F)(F)n2c(c3cccc4c(Br)ccc2c43)=C1C#N`, the absorption maximum (in C1CCOC1) was 539 nm, the absorption maximum (in CC#N) was 532 nm and the absorption maximum (in CCCCCC) was 542 nm. The absorption maximum (in Cc1ccccc1) was 543 nm and the absorption maximum (in ClCCl) was 538 nm.

`F[Si-](F)(c1ccccc1)(c1ccccc1)c1cc2ccccc2c2ccccc12` showed an absorption maximum (in C1CCOC1) of 303 nm.

For `Nc1ccc(/C=C/c2cccnc2)cc1`, the absorption maximum (in CC#N) was 342 nm and the absorption maximum (in CCCCCC) was 336 nm.

Compound `CCc1ccc(C2=[N+]3C(=Cc4c5ccc(OC)cc5c(-c5ccc(CC)s5)n4[B-]3(F)F)c3ccc(OC)cc32)s1` has an absorption maximum (in ClCCl) of 727 nm.

For `CCN(CC)c1ccc2cc(-c3nc4ccccc4s3)c(=O)oc2c1`, the absorption maximum (in C1CCCCC1) was 425.4 nm, the absorption maximum (in CC1CCCCC1) was 425.4 nm and the absorption maximum (in CC#N) was 454 nm and 447 nm. For the same compound, the absorption maximum (in CCC(C)CC) was 425 nm, the absorption maximum (in CCCCCC) was 425 nm and the absorption maximum (in CCO) was 460 nm. For the same compound, the absorption maximum (in CCOC(C)=O) was 439.4 nm.

With `O=c1cccc2n1CN1C=C(Br)C=CC1=N2` the absorption maximum (in CO) was 436 nm.

In the case of `COc1ccc2cc(C3=[N+]4C(=Nc5c(-c6ccccc6)cc(-c6ccc7cc(OC)ccc7c6)n5[B-]4(F)F)C(c4ccccc4)=C3Br)ccc2c1`, the absorption maximum (in ClC(Cl)Cl) was 695 nm and the absorption maximum (in ClCCl) was 695 nm.

Work on `c1ccc(-c2ccc(-c3ccc4c(c3)CCO4)cc2)cc1` yielded an absorption maximum (in C1CCCCC1) of 289 nm.

For `c1ccc(-c2nc(-c3ccccc3)nc(-c3cc(-n4c5ccccc5c5ncccc54)c(-n4c5ccccc5c5ccccc54)c(-n4c5ccccc5c5ncccc54)c3)n2)cc1`, the absorption maximum (in Cc1ccccc1) was 376.56 nm.

In the case of `CC(C)[Si]1(C(C)C)c2ccccc2-c2ccc(N(C)C)cc21`, the absorption maximum (in C1CCCCC1) was 323 nm, the absorption maximum (in CC#N) was 321 nm and the absorption maximum (in CCO) was 319 nm. The absorption maximum (in CCOCC) was 318 nm, the absorption maximum (in CS(C)=O) was 324 nm and the absorption maximum (in ClCCl) was 323 nm. It also gave an absorption maximum (in c1ccccc1) of 323 nm.

Work on `CCCCCCCCCCCCN1C(=O)c2c(c3ccc4cc(-c5ccc(Cl)cc5)c(OC)cc4c3c3c2ccc2cc(-c4ccc(Cl)cc4)c(OC)cc23)C1=O` yielded an absorption maximum (in ClCCl) of 430 nm.

`c1ccc(-c2nc3ccccc3nc2-c2ccc(-n3c4ccccc4c4ccccc43)cc2)cc1` showed an absorption maximum (in Cc1ccccc1) of 345 nm.

`[O-][n+]1c(/C=C/c2cccs2)nc(N2CCOCC2)c2c1CCCC2` showed an absorption maximum (in ClCCl) of 400 nm.

In the case of `COc1ccccc1C1=[N+]2C(=Nc3c(-c4ccccc4)cc(-c4ccccc4OC)n3[B-]2(F)F)C(c2ccccc2)=C1`, the absorption maximum (in Cc1ccccc1) was 640 nm.

`CCCCN1/C(=C/C=C/C2=[N+](C)c3ccccc3C2(C)C)C(C)(C)c2cc(Br)ccc21` showed an absorption maximum (in CS(C)=O) of 556 nm.

`Cc1nc2c(ccc3c2sc(/C=C/c2ccc(N(c4ccccc4)c4ccccc4)cc2)[n+]3C)s1` gave an absorption maximum (in CO) of 522 nm and an absorption maximum (in ClC(Cl)Cl) of 561 nm.
